According to article PMC12383145, “Fluorescent Peptides Internalize HeLa Cells and Kill Multidrug-Resistant Clinical Bacterial Isolates” (Antibiotics, 2025):
≈ marks a conversion by molar mass, not a printed value. Where “and” joins values, the source holds several entries; their conditions need not be identical. Identical values can stand only once. Like-named read-outs stand apart in the source and are kept apart here. Positions of bridges follow the written chain, without caps; N, C: chain ends. Non-standard residues stand in square brackets, D forms with d. Residues, ends and D or L forms follow the SMILES beside them. Chains are numbered I, II in the order given. *: point of attachment. RhodamineB = CCN(CC)c1ccc2c(-c3ccccc3C(=O)*)c3ccc(=[N+](CC)CC)cc-3oc2c1; hPhe = N[C@@H](CCc1ccccc1)C(=O)O; 2Abz = Nc1ccccc1C(=O)O; Ahx = NCCCCCC(=O)O

Key:
Format in all cases: cell-based
[1] = test system: E. faecalis clinical isolate 213; conditions: E. faecalis clinical isolate 213
Procedure: (§1) E. coli isolates 1004 (susceptible), 129797 (resistant), and 301755 (MDR) were selected for evaluation. Isolate 1004 was sensitive to all antibiotics tested. […] These findings identify it as a multidrug-resistant (MDR) strain and an extended-spectrum beta-lactamase (ESBL)-producing bacterium. For S. aureus, isolates 109095, 117719, and 124653 were evaluated. All three were resistant to penicillin, indicating beta-lactamase production mediated by the blaZ gene. Studies have shown that up to 90% of S. aureus isolates worldwide are penicillin-resistant, which implies that this antibiotic is ineffective in infections caused by this pathogen. […] Isolate 124653 was resistant to penicillin, tetracycline, and erythromycin, with the latter belonging to the group of macrolides, antibiotics that inhibit protein synthesis through interaction with the 50S […] subunit. For E. faecalis three isolates were selected: strains 213 (sensitive to all the antibiotics tested), strain 82 (resistant to streptomycin), and strain 179 (resistant to gentamicin). These clinical isolates were selected to assess the antimicrobial activity of the peptide RWQWRWQWR and its analogues conjugated to fluorescent molecules in strains against strains with susceptibility profiles.
(§2) The analysis of synthesized peptides in ATCC reference strains and susceptible, resistant, and multidrug-resistant (MDR) clinical isolates was performed. The clinical isolates were obtained from the National Cancer Institute collection and were previously identified and antibiogrammed using the VITEK system. Additionally, the strains were characterized by MALDI-TOF. The strains were re-primed onto trypticase soy agar and subsequently preserved in Brain–Heart Infusion (BHI) broth containing 20% glycerol. For the MIC and MBC assays, the strains were reactivated and cultured in BHI until they reached their exponential growth phase.
(§3) The minimum inhibitory concentration (MIC) of the peptides was determined by the broth microdilution technique, according to the Clinical and Laboratory Standards Institute (CLSI) guidelines, as previously described. Briefly, bacterial strains were incubated in BHI broth at 37 °C until they reached the exponential growth phase, and inocula were adjusted to 5 × 10^6 CFU/mL using calibration curves. Serial dilutions of the peptides to be evaluated in 96-well plates were made in 90 µL of Mueller Hinton broth at concentrations ranging from 200 to 6.25 µg/mL, and 10 µL of the inoculum adjusted to 5 × 10^6 CFU/mL was added. Finally, the plates were incubated at 37 °C for 24 h, and the absorbance at 620 nm was read. As a negative control, CMH, distilled water, and 10 µL of inoculum were used; for the positive control, vancomycin was used for Gram-positive strains and ciprofloxacin for Gram-negative strains at the MICs dictated by the CLSI; as a technical control, CMH with peptone water was used, and for the growth control, CMH was used with 10 µL of inoculum.
(§4) To determine the minimum bactericidal concentration (MBC), the 96-well plates where the MIC was determined were used as a starting point. From these, an aliquot of the controls and those wells where no apparent bacterial growth was observed were spotted onto trypticase soy agar plates. The plates were incubated at 37 °C for 24 h, and the reading was taken, identifying the lowest concentration of the peptide where there was no bacterial growth as the MBC.

[2] = test system: S. aureus clinical isolate 124653; conditions: S. aureus clinical isolate 124653
Procedure: as §1, §2, §3, §4

[3] = test system: E. coli clinical isolate 301755 (MDR); conditions: E. coli clinical isolate 301755
Procedure: as §1, §2, §3, §4

[4] = test system: S. aureus clinical isolate 109095; conditions: S. aureus clinical isolate 109095
Procedure: as §1, §2, §3, §4

[5] = test system: E. coli clinical isolate 1004 (susceptible); conditions: E. coli clinical isolate 1004
Procedure: as §1, §2, §3, §4

[6] = test system: E. faecalis clinical isolate 179; conditions: E. faecalis clinical isolate 179
Procedure: as §1, §2, §3, §4

[7] = test system: E. faecalis clinical isolate 82; conditions: E. faecalis clinical isolate 82
Procedure: as §1, §2, §3, §4

[8] = test system: E. coli clinical isolate 129797 (resistant); conditions: E. coli clinical isolate 129797
Procedure: as §1, §2, §3, §4

[9] = MTT cytotoxicity assay in HeLa cells; conditions: human
Procedure: MTT assays were conducted in HeLa cells to evaluate the effect of fluorescent probe incorporation on the in vitro cytotoxic activity of the parent non-conjugated peptides. The cytotoxic effect of peptides 1, Abz-1 RhB-1, 2, and RhB-2 in HeLa cells was peptide concentration-dependent, with the highest anticancer activity observed at 200 µg/mL. Incorporation of 2-Abz and RhB at the N-terminal end reduced cytotoxic activity, while the binding of 2-Abz at the C-terminal end or FAM at the N-terminal end drastically diminished anticancer activity (Table 4).

[10] = test system: S. aureus clinical isolate 11719; conditions: S. aureus clinical isolate 11719
[11] = test system: clinical isolates of E. faecalis; conditions: stated for the E. faecalis clinical isolates together
Procedure: as §1, with “For E. faecalis three isolates were selected: strains 213 (sensitive to all the antibiotics tested), strain 82 (resistant to streptomycin), and strain 179 (resistant to gentamicin). These clinical isolates were selected to assess the antimicrobial activity of the peptide RWQWRWQWR and its analogues conjugated to fluorescent molecules in strains against strains with susceptibility profiles.” left out
The minimum inhibitory concentration (MIC) of the peptides was determined by the broth microdilution technique, according to the Clinical and Laboratory Standards Institute (CLSI) guidelines, as previously described. […] Serial dilutions of the peptides to be evaluated in 96-well plates were made in 90 µL of Mueller Hinton broth at concentrations ranging from 200 to 6.25 µg/mL, and 10 µL of the inoculum adjusted to 5 × 10^6 CFU/mL was added. Finally, the plates were incubated at 37 °C for 24 h, and the absorbance at 620 nm was read. […]

[12] = test system: K. pneumoniae ATCC 700603; conditions: K. pneumoniae ATCC 700603
Procedure: as §3, §4

E. faecalis ATCC 29212 = conditions: E. faecalis ATCC 29212
Procedure: as §3, §4

S. aureus ATCC 25923 = conditions: S. aureus ATCC 25923
Procedure: as §3, §4

P. aeruginosa ATCC 27853 = conditions: P. aeruginosa ATCC 27853
Procedure: as §3, §4

E. coli ATCC 25922 = conditions: E. coli ATCC 25922
Procedure: as §3, §4

Hemolysis assay = test: Hemolysis assay
Procedure: Whole blood was collected into EDTA tubes and centrifuged at 2500 rpm for 10 min. The plasma and buffy coat were removed, and the erythrocytes were washed three times with 0.9% saline to yield a 4% cell suspension. In 96-well plates, 100 µL of peptide dilutions (6.25–200 µg/mL) were prepared in triplicate, and 100 µL of the erythrocyte suspension was added (final hematocrit 2%). Plates were incubated at 37 °C for 2 h, and then centrifuged again at 2500 rpm for 10 min. A 100 µL aliquot of the supernatant was transferred to a fresh plate, and absorbance was measured at 450 nm. Saline and 1× Triton X-100 served as the negative and positive controls, respectively. Hemolysis (%) was calculated as follows: %hemolysis=treatment absorbance−saline absorbance/1×triton absorbance−saline absorbance

HeLa cells [13] = test: Micrographs of cell morphology after peptide treatment; conditions: 100 µg/mL, 2 h, 37 °C
Excerpt: Despite these pronounced morphological alterations, there was no evidence of cell rupture, membrane disintegration, or the presence of cell fragments, indicating the absence of necrotic processes. […] Green arrows indicate normal morphologies, such as cytoplasmic elongations and polygonal shapes. Red arrows indicate morphological changes induced by the peptides, including cell rounding, shrinkage, and loss of cytoplasmic projections. Scale bar: µm. The control corresponds to untreated cells.

HeLa cells [14] = test: Fluorescence confocal microscopy, colocalization analysis (ImageJ JaCoP); conditions: 2 h at IC50, colocalization with SMA antibody
Procedure: The possible cellular distribution of the peptides was determined by colocalization analysis of the Rhodamine B fluorescent signal, with fluorophores used to stain the nucleus (Hoechst 33342) and cytoplasm components (SMA antibody). ImageJ 1.54f analysis software and the JaCoP plugin were used to analyze signal colocalization.
HeLa cells (>70% confluence) were seeded on sterile round coverslips in 24-well plates with DMEM + 5% FBS and incubated at 37 °C, 5% CO2 for 24 h. After adhesion, the medium was replaced, and cells were treated with fluorescent peptides at their IC50 for 2 h. Then, cells were washed with PBS under constant stirring (3 × 10 min). Cellular fixation was performed using a solution containing 2% paraformaldehyde and 1% sucrose 100 mM in PBS for 30 min, followed by PBS washes (2 × 10 min). Permeabilization was carried out using a solution of 0.1% Triton X-100 and 20 mM glycine in PBS for 10 min, followed by two additional PBS washes. Blocking was performed with 1% BSA and 20 mM glycine in PBS for 10 min. […] For the fluorescence lecture, 5 µL of Fluoromount mounting medium was applied to the slide, and the coverslip containing the cells was inverted onto the medium. Slides were allowed to be dry-protected from light, and cells were visualized using a Leica DMi8 fluorescence confocal microscope. […]

N=C(N)NCCC[C@H](NC(=O)[C@H](Cc1c[nH]c2ccccc12)NC(=O)[C@H](CCC(N)=O)NC(=O)[C@H](Cc1c[nH]c2ccccc12)NC(=O)[C@H](CCCNC(=N)N)NC(=O)[C@H](Cc1c[nH]c2ccccc12)NC(=O)[C@H](CCC(N)=O)NC(=O)[C@H](Cc1c[nH]c2ccccc12)NC(=O)[C@H](CCCNC(=N)N)NC(=O)c1ccccc1N)C(N)=O [Abz-1, (2-Abz)-RWQWRWQWR] (H-[2Abz]RWQWRWQWR-NH2)
Minimal bactericidal concentration (MBC) [1]: 62 µM (≈ 99.6 µg/mL) | Minimal inhibitory concentration (MIC) [1]: 31 µM (≈ 49.8 µg/mL) | Minimal bactericidal concentration (MBC) [2]: > 125 µM | Minimal inhibitory concentration (MIC) [2]: 125 µM (≈ 201 µg/mL) | Minimal bactericidal concentration (MBC) [3]: > 125 µM | Minimal inhibitory concentration (MIC) [3]: > 125 µM | Minimal bactericidal concentration (MBC) [4]: > 125 µM | Minimal inhibitory concentration (MIC) [4]: 125 µM (≈ 201 µg/mL) | Minimal bactericidal concentration (MBC) [5]: > 125 µM | Minimal inhibitory concentration (MIC) [5]: > 125 µM | Minimal bactericidal concentration (MBC) [6]: 62 µM (≈ 99.6 µg/mL) | Minimal inhibitory concentration (MIC) [6]: 31 µM (≈ 49.8 µg/mL) | Minimal bactericidal concentration (MBC) [7]: 62 µM (≈ 99.6 µg/mL) | Minimal inhibitory concentration (MIC) [7]: 31 µM (≈ 49.8 µg/mL) | Minimal bactericidal concentration (MBC) [8]: > 125 µM | Minimal inhibitory concentration (MIC) [8]: > 125 µM | IC50 ([9]; HeLa cells, MTT, read-out: Cytotoxic Activity (IC50)): 140 µg/mL and 87 µM | Minimal bactericidal concentration (MBC) [10]: > 125 µM | Minimal inhibitory concentration (MIC) [10]: 125 µM (≈ 201 µg/mL) | MIC [11]: 31 µM (≈ 49.8 µg/mL) | Minimal bactericidal concentration (MBC) [12]: > 125 µM | Minimal inhibitory concentration (MIC) [12]: > 125 µM | Minimal bactericidal concentration (MBC) (E. faecalis ATCC 29212): 62 µM (≈ 99.6 µg/mL) | Minimal inhibitory concentration (MIC) (E. faecalis ATCC 29212): 62 µM (≈ 99.6 µg/mL) | Minimal bactericidal concentration (MBC) (S. aureus ATCC 25923): 31 µM (≈ 49.8 µg/mL) | Minimal inhibitory concentration (MIC) (S. aureus ATCC 25923): 16 µM (≈ 25.7 µg/mL) | Minimal bactericidal concentration (MBC) (P. aeruginosa ATCC 27853): > 125 µM | Minimal inhibitory concentration (MIC) (P. aeruginosa ATCC 27853): > 125 µM | Minimal bactericidal concentration (MBC) (E. coli ATCC 25922): 125 µM (≈ 201 µg/mL) | Minimal inhibitory concentration (MIC) (E. coli ATCC 25922): 62 µM (≈ 99.6 µg/mL) | hemolysis at 2 h (Hemolysis assay; at 200 µg/mL (highest tested concentration), 2 h, 37 °C, read-out: hemolysis): 13.4% | hemolysis at 2 h (Hemolysis assay; at the lowest MIC concentration, read-out: Percentage of hemolysis): 6.5% | selectivity ratio at 2 h (Hemolysis assay; peptide concentration at 10% hemolysis / IC50 in HeLa cells, read-out: Selectivity index): 0.7

CCN(CC)c1ccc2c(-c3ccccc3C(=O)N[C@@H](CCCNC(=N)N)C(=O)N[C@@H](CCCNC(=N)N)C(=O)N[C@@H](Cc3c[nH]c4ccccc34)C(=O)N[C@@H](CCC(N)=O)C(=O)N[C@@H](Cc3c[nH]c4ccccc34)C(=O)N[C@@H](CCCNC(=N)N)C(=O)N[C@@H](CCc3ccccc3)C(=O)N[C@@H](CCCCN)C(=O)N[C@@H](CCCCN)C(=O)N[C@@H](CC(C)C)C(=O)NCC(=O)NCCCC[C@H](NC(=O)CNC(=O)[C@H](CC(C)C)NC(=O)[C@H](CCCCN)NC(=O)[C@H](CCCCN)NC(=O)[C@H](CCc3ccccc3)NC(=O)[C@H](CCCNC(=N)N)NC(=O)[C@H](Cc3c[nH]c4ccccc34)NC(=O)[C@H](CCC(N)=O)NC(=O)[C@H](Cc3c[nH]c4ccccc34)NC(=O)[C@H](CCCNC(=N)N)NC(=O)[C@H](CCCNC(=N)N)NC(=O)c3ccccc3-c3c4ccc(=[N+](CC)CC)cc-4oc4cc(N(CC)CC)ccc34)C(=O)NCCCCCC(N)=O)c3ccc(=[N+](CC)CC)cc-3oc2c1 [RhB-2, (RhB-RRWQWR-hF-KKLG)2K-Ahx] (I: RhodamineB-RRWQWR[hPhe]KKLGK[Ahx]-NH2 / II: RhodamineB-RRWQWR[hPhe]KKLG; amide I:12-II:C)
IC50 [9]: 151 µg/mL and 35 µM | morphological changes (HeLa cells [13]): appeared smaller, rounded, and contained vacuoles | cellular localization (HeLa cells [14]): internalized and distributed in the cytoplasm
